# According to BindingDB's records for doi:10.1002/cbic.201200524 (Mcgill University, 2012):
# Target: Cytochrome P450 2E1 (Homo sapiens, UniProt P05181)
# Experiment: Spectral Binding Assay
# From the text: All UV/Vis spectra of the enzyme-ligand complexes were obtained on a Cary 5000 UV/Vis spectrophotometer.
# Chain of Cytochrome P450 2E1 (P05181 whole entry): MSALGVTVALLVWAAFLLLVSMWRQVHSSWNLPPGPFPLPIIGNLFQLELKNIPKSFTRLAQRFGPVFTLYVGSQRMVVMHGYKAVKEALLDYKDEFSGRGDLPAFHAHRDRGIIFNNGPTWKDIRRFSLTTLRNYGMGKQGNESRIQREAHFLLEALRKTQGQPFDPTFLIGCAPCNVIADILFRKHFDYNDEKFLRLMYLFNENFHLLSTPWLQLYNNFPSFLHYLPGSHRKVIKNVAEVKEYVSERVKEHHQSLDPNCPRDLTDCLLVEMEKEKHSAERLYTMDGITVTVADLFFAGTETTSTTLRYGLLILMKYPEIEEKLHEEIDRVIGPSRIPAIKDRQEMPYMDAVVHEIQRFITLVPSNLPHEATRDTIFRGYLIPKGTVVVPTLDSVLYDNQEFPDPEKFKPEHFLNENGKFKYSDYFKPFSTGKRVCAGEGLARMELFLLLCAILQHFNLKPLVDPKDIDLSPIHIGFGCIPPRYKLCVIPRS
row,SMILES,Kd [nM]
1,"CCCCCCCCOC(=O)c1cccnc1 [Auxiliary substrate, 14a]",2100
2,"O=C(OCC1CCCC1)c1cccnc1 [Auxiliary substrate, 20a]",1600
3,"CCCCCCOC(=O)c1cccnc1 [Auxiliary substrate, 1a]",1400
4,"CC(C)CCCCOC(=O)c1cccnc1 [Auxiliary substrate, 11a]",1800

# Second part, the molecule after the results:
row,Kd [nM],SMILES
1,1300,"CC/C=C/CCOC(=O)c1cccnc1 [Auxiliary substrate, 16a]"
2,2600,"CCC(C)CCOC(=O)c1cccnc1 (stereo not drawn) [Auxiliary substrate, 10a]"
3,12000,"C=CCCOC(=O)c1cccnc1 [Auxiliary substrate, 18a]"
4,5900,"CCCCCOC(=O)c1cccnc1 [Auxiliary substrate, 12a]"
